Counter-ions that a name gives are not always drawn.
Assays:
[1] = molecular target: muscarinic cholinergic receptor (high affinity agonist conformation); experiment: [3H]-cis-Methyldioxolane (3H-CD) Binding Assay (High Affinity), cerebral cortex; conditions: 3H-CD 1.0 nM, rat cerebral cortex, 25° C., 120 minutes, pH 7.4; read-out: Ki, ^3 H-CD (ctx)
[2] = molecular target: muscarinic cholinergic receptor; experiment: [3H] Quinuclidinyl Benzilate (QNB) Binding Assay, cerebral cortex; conditions: 3H-QNB 0.25 nM, rat cerebral cortex, 25° C., 120 minutes, pH 7.4; read-out: Ki, ^3 H-QNB (ctx)

Row | Compound | Ki [1] [µM] | Ki [2] [µM]
1 | CC(C)(C)OC(=O)N1C[C@H]2C[C@@H]1CN2c1cnccn1 [Example 3, (R,R)-2-(tert-Butyloxycarbonyl)-5-(2-pyrazinyl)-2,5-diazabicyclo[2.2.1]heptane] | > 1000 | 
2 | Cc1nsc(N2C[C@H]3C[C@@H]2CN3C(=O)OC(C)(C)C)n1 [Example 5] | 59 | > 1000
3 | CC(C)(C)OC(=O)N1C[C@H]2C[C@@H]1CN2c1ncns1 [Example 7] | > 1000 | 
4 | CC(C)(C)OC(=O)N1C[C@@H]2C[C@H]1CN2c1ncns1 [Example 8, (S,S)-2-(tert-Butyloxycarbonyl)-5-(1,2,4-thiadiazol-5-yl)-2,5-diazabicyclo[2.2.1]heptane] | 97 | 
5 | Cc1noc(N2C[C@H]3C[C@@H]2CN3C(=O)OC(C)(C)C)n1 [Example 9, (R,R)-2-(tert-Butyloxycarbonyl)-5-(3-methyl-1,2,4-oxadiazol-5-yl)-2,5-diazabicyclo[2.2.1]heptane] | 18.2 | 
6 | Cc1noc(N2C[C@@H]3C[C@H]2CN3C(=O)OC(C)(C)C)n1 [Example 10] | 43.2 | 
7 | c1cnc(N2C[C@H]3C[C@@H]2CN3)cn1 [Example 11, (R,R)-2-(2-Pyrazinyl)-2,5-diazabicyclo[2.2.1]heptane hydrochloride] | 0.1 | 3.1
8 | c1cnc(N2C[C@@H]3C[C@H]2CN3)cn1 [Example 12, (S,S)-2-(2-Pyrazinyl)-2,5-diazabicyclo[2.2.1]heptane hydrochloride] | 1.3 | 11.4
9 | Cc1nsc(N2C[C@@H]3C[C@H]2CN3)n1 [Example 13, (S,S)-2-(3-Methyl-1.2,4-thiadiazol-5-yl)-2,5-diazabicyclo[2.2.1]heptane] | 13 | 
10 | Cc1nsc(N2C[C@H]3C[C@@H]2CN3)n1 [Example 14, (R,R)-2-(3-Methyl-1,2,4-thiadiazol-5-yl)-2,5-diazabicyclo[2.2.1]heptane] | 0.9 | 24.7
11 | c1nsc(N2C[C@@H]3C[C@H]2CN3)n1 [Example 15, (S,S)-2-(1,2,4-Thiadiazol-5-yl)-2,5-diazabicyclo[2.2.1]heptane] | 29.5 | > 1000
12 | c1nsc(N2C[C@H]3C[C@@H]2CN3)n1 [Example 16, (R,R)-2-(1,2,4-Thiadiazol-5-yl) -2,5-diazabicyclo[2.2.1]heptane] | 0.3 | > 1000
13 | Cc1noc(N2C[C@@H]3C[C@H]2CN3)n1 [Example 17, (S,S)-2-(3-Methyl-1,2,4-oxadiazol-5-yl)-2,5-diazabicyclo[2.2.1]heptane] | 5.4 | > 1000
14 | Cc1noc(N2C[C@H]3C[C@@H]2CN3)n1 [Example 18, (R,R)-2-(3-Methyl-1,2,4-oxadiazol-5-yl)-2,5-diazabicyclo[2.2.1]heptane] | 0.4 | 47.2
15 | CN1C[C@@H]2C[C@H]1CN2c1cnccn1 [Example 19, (S,S)-2-Methyl-5-(2-pyrazinyl)-2,5-diazabicyclo[2.2.1]heptane] | 0.4 | 5.5
16 | Cc1cnc(C)c(N2C[C@@H]3C[C@H]2CN3C)n1 [Example 22, (S,S)-2-(3,6-Dimethylpyrazin-2-yl)-5-methyl-2,5-diazabicyclo[2,2.1]heptane] | 0.7 | 1.2
17 | CN1C[C@@H]2C[C@H]1CN2c1nccnc1Cl [Example 23, (S,S)-2-(3-Chloropyrazin-2-yl)-5-methyl-2,5-diazabicyclo[2.2.1]heptane] | 0.9 | 2.3
18 | CN1C[C@@H]2C[C@H]1CN2c1cncc(Cl)n1 [Example 24, (S,S)-2-(6-Chloropyrazin-2-yl)-5-methyl-2.5-diazabicyclo[2.2.1]heptane] | 2 | 4.5
19 | Cc1nsc(N2C[C@@H]3C[C@H]2CN3C)n1 [Example 26, (S,S)-2-Methyl-5-(3-methyl-1,2,4-thiadiazol-5-yl)-2,5-diazabicyclo[2.2.1]heptane] | 0.2 | 0.5
20 | CN1C[C@@H]2C[C@H]1CN2c1sccc1[N+](=O)[O-] [Example 28, (S,S)-2-Methyl-5-(3-nitro-2-thienyl)-2,5-diazabicyclo[2.2.1]heptane] | 9.8 | > 1000
21 | CN1C[C@@H]2C[C@H]1CN2c1ccc([N+](=O)[O-])s1 [Example 29, (S,S)-2-Methyl-5-(5-nitro-2-thienyl)-2,5-diazabicyclo[2.2.1]heptane] | 6.8 | 13.2
22 | CN1C[C@@H]2C[C@H]1CN2c1ccccc1[N+](=O)[O-] [Example 30, (S,S)-2-Methyl-5-(2-nitrophenyl)-2,5-diazabicyclo[2.2.1]heptane] | 1.1 | 1.6
23 | COc1cncc(N2C[C@@H]3C[C@H]2CN3C)n1 [Example 32, (S,S)-2-Methyl-5-(6-methoxypyrazin-2-yl)-2,5-diazabicyclo[2.2.1]heptane] | 0.3 | 0.4
24 | Cc1nccnc1N1C[C@@H]2C[C@H]1CN2C [Example 35, (S,S)-2-Methyl-5-(3-methylpyrizin-2-yl)-2,5-diazabicyclo[2.2.1]heptane] | 1.7 | 6.3
25 | CN1C[C@H]2C[C@@H]1CN2c1cnccn1 [Example 36, (R,R)-2-Methyl-5-(2-pyrazinyl)-2,5-diazabicyclo[2.2.1]heptane] | 6.4 | > 1000

From patent publication US5478939A, “(R,R) and (S,S) 2,5-diazabicyclo [2,2,1]heptane derivatives” (priority 1994, dated 1995)
